# In PMC9911596 (Nature Communications, 2023):
# Target: T1, Vtc1/Vtc3/Vtc4 complex (VTC complex) (Saccharomyces cerevisiae, UniProt P47075+Q02725, Q02725:Y22F/Q02725:K26A/Q02725:K130A)
# T1 construct: full-length subunits co-expressed in Expi293F; Vtc1 C-terminal HA, Vtc3 N-terminal 3xFlag, Vtc4 C-terminal 2xStrep; detergent-purified; 3:1:1 pentamer; with Vacuolar transporter chaperone complex subunit 1
# T1 sequence (P47075 1-721): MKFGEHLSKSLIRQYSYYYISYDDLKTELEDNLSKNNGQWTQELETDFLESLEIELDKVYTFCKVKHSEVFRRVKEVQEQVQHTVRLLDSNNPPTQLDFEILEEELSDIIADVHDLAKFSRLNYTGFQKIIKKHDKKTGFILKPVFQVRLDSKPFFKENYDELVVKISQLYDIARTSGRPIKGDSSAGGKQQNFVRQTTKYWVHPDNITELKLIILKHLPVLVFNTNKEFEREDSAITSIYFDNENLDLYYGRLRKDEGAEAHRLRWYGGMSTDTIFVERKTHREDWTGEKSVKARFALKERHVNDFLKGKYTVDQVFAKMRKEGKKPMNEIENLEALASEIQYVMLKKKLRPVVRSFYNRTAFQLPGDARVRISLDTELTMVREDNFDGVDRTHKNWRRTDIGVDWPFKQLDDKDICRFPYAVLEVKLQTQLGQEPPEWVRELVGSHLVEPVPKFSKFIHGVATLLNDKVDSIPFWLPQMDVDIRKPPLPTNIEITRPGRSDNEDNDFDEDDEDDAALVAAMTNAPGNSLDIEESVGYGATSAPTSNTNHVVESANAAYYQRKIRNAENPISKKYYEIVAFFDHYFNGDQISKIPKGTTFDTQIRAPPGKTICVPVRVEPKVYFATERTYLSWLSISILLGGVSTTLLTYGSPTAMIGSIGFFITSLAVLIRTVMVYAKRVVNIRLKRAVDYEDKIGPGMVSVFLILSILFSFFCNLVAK
# T1 sequence (Q02725 1-835 Y22F/K26A/K130A): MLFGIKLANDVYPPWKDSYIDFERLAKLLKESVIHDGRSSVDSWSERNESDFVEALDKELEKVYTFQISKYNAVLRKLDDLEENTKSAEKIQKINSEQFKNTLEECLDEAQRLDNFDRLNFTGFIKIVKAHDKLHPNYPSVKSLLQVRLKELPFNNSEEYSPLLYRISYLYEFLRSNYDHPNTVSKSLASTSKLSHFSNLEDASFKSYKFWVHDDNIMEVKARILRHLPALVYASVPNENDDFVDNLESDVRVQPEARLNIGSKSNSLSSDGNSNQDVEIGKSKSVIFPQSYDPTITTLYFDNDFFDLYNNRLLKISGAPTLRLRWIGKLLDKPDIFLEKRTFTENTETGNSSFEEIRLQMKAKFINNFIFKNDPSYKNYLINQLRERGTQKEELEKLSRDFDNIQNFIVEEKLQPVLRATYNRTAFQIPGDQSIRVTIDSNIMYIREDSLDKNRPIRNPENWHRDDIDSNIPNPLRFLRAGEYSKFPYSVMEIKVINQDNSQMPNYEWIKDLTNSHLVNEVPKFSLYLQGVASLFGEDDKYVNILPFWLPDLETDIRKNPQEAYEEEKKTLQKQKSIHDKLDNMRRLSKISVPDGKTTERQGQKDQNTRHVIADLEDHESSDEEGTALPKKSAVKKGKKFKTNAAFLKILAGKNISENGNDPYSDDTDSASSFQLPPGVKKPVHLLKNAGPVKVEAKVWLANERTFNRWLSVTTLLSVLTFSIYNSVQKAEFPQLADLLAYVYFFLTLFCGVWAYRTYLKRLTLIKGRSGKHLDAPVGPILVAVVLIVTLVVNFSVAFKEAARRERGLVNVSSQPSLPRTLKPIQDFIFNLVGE
# T1 sequence (P40046 2-129 partner): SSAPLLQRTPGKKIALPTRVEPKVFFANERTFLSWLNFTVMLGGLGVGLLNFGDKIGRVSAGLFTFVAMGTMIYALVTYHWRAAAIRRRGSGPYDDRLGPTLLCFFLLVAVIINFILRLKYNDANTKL
# Assay: polyP synthesis, TBE-PAGE
# Assay type: biochemical
# Conditions: activator; 15 mM ATP, 10 mM MgCl2, 1 mM MnCl2, 0.5 mM pyrophosphate, 27 °C, 4 h; SPX PBC mutant
structure (smiles),measurement,value
O=P(O)(O)O[C@H]1[C@H](OP(=O)(O)O)[C@@H](OP(=O)(O)O)[C@H](OP(=O)(O)O)[C@@H](OP(=O)(O)O)[C@H]1OP(=O)(O)O [InsP6],"polyP synthesis, TBE-PAGE",residues had little effect on polyP synthesis
